Assay results: patent US20260176267A1, “PREPARATION OF IMIDAZOPYRIDINE AND IMIDAZOPYRIDAZINE DERIVATIVES AS NOVEL DIACYLGLYCERIDE O-ACYLTRANSFERASE 2 INHIBITORS” (Merck Sharp & Dohme LLC, priority 2022, published 2026)

target: T1, human DGAT2 (hDGAT2) (Homo sapiens, UniProt Q96PD7); experiment: DGAT2 Enzymatic Activity Assay; format: biochemical; details: membrane prep of Sf-9 cells expressing hDGAT2; 13C18-triolein product by LC/MS/MS; 25 μM diolein, 5 μM 13C oleoyl-CoA, rt
T1 construct: made in house; host or cells: Sf-9 insect cells (baculovirus), membrane fraction
T1 sequence (Q96PD7 1-388): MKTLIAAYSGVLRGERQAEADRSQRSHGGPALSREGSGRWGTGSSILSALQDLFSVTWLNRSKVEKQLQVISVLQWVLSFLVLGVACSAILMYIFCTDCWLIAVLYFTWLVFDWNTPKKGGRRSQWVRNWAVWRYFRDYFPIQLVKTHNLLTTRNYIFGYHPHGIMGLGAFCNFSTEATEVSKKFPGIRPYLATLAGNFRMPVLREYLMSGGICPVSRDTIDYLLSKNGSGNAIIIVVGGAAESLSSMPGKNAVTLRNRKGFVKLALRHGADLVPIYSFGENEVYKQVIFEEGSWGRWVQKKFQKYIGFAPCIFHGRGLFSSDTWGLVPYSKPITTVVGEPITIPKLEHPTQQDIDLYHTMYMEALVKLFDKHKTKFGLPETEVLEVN
In short: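 Membranes from Sf-9 cells expressing untagged human DGAT2 (baculovirus, 48 h) used as enzyme at rt. The product ^13C18-triolein is quantified by LC/MS/MS against a ^13C21-triolein internal standard. Percent inhibition is taken from high and low controls, and IC50 is derived.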

Structure (SMILES) | IC50 [nM]
Cc1c(C(=O)NC2(C)CCS(=O)(=O)CC2)nc2ccc(Oc3ncc(Cl)cc3OCC(F)F)cn12 [Example 71, 6-[[5-chloro-3-(2,2-difluoroethoxy)-2-pyridyl]oxy]-3-methyl-N-(4-methyl-1,1-dioxo-thian-4-yl)imidazo[1,2-a]pyridine-2-carboxamide] | 1.4
Cc1c(C(=O)NC2(C)CCS(=O)(=O)CC2)nc2ccc(Oc3ncc(F)cc3OCC(F)F)cn12 [Example 73, 6-[[3-(2,2-difluoroethoxy)-5-fluoro-2-pyridyl]oxy]-3-methyl-N-(4-methyl-1,1-dioxo-thian-4-yl)imidazo[1,2-a]pyridine-2-carboxamide] | 2.6
Cc1c(C(=O)NC2(C)CS(=O)(=O)C2)nc2ccc(Oc3ncc(F)cc3OCC(F)F)cn12 [Example 74, 6-[[3-(2,2-difluoroethoxy)-5-fluoro-2-pyridyl]oxy]-3-methyl-N-(3-methyl-1,1-dioxo-thietan-3-yl)imidazo[1,2-a]pyridine-2-carboxamide] | 6.7
Cc1c(C(=O)NC2(C)CCS(=O)(=O)CC2)nc2ccc(Oc3ncc(C(C)C)cc3OCC(F)(F)F)cn12 [Example 75, 6-[[5-isopropyl-3-(2,2,2-trifluoroethoxy)-2-pyridyl]oxy]-3-methyl-N-(4-methyl-1,1-dioxo-thian-4-yl)imidazo[1,2-a]pyridine-2-carboxamide] | 6.6
Cc1cnc(Oc2ccc3nc(C(=O)NC4(C)CCS(=O)(=O)CC4)c(C)n3c2)c(OCC(F)(F)F)n1 [Example 78, 3-methyl-N-(4-methyl-1,1-dioxo-thian-4-yl)-6-[5-methyl-3-(2,2,2-trifluoroethoxy)pyrazin-2-yl]oxy-imidazo[1,2-a]pyridine-2-carboxamide] | 3
CCc1cnc(Oc2ccc3nc(C(=O)NC4(C)CS(=O)(=O)C4)c(C)n3c2)c(OCC(F)(F)F)c1 [Example 79, 6-[[5-ethyl-3-(2,2,2-trifluoroethoxy)-2-pyridyl]oxy]-3-methyl-N-(3-methyl-1,1-dioxo-thietan-3-yl)imidazo[1,2-a]pyridine-2-carboxamide] | 6.8
Cc1c(C(=O)NC2CS(=O)(=O)C2(C)C)nc2ccc(Oc3ncc(Cl)cc3OCC(F)F)cn12 (stereo not drawn) [Example 80, 6-[[5-chloro-3-(2,2-difluoroethoxy)-2-pyridyl]oxy]-N-(2,2-dimethyl-1,1-dioxo-thietan-3-yl)-3-methyl-imidazo[1,2-a]pyridine-2-carboxamide] | 3.8
Cc1c(C(=O)NC2(C)CCS(=O)(=O)CC2)nc2ccc(Oc3ncc(Cl)cc3OCC3(F)CC3)cn12 [Example 81, 6-[[5-chloro-3-[(1-fluorocyclopropyl)methoxy]-2-pyridyl]oxy]-3-methyl-N-(4-methyl-1,1-dioxo-thian-4-yl)imidazo[1,2-a]pyridine-2-carboxamide] | 3.5
Cc1c(C(=O)NC2(C)CS(=O)(=O)C2)nc2ccc(Oc3ncc(Cl)cc3OCC(F)(F)F)cn12 [Example 84, 6-[[5-chloro-3-(2,2,2-trifluoroethoxy)-2-pyridyl]oxy]-3-methyl-N-(3-methyl-1,1-dioxo-thietan-3-yl)imidazo[1,2-a]pyridine-2-carboxamide] | 6.2
Cc1c(C(=O)NC2(C)CN(C(=O)C(F)(F)F)C2)nc2ccc(Oc3ncc(F)cc3OCC(F)F)cn12 [Example 85, 6-[[3-(2,2-difluoroethoxy)-5-fluoro-2-pyridyl]oxy]-3-methyl-N-[3-methyl-1-(2,2,2-trifluoroacetyl)azetidin-3-yl]imidazo[1,2-a]pyridine-2-carboxamide] | 1.6
Cc1c(C(=O)NC2(C)CCS(=O)(=O)CC2)nc2ccc(Oc3ncccc3OCC(F)(F)F)cn12 [Example 87, 3-methyl-N-(4-methyl-1,1-dioxo-thian-4-yl)-6-[[3-(2,2,2-trifluoroethoxy)-2-pyridyl]oxy]imidazo[1,2-a]pyridine-2-carboxamide] | 17
Cc1c(C(=O)NC2(C)CN(C(=O)C(F)(F)F)C2)nc2ccc(Oc3ncc(F)cc3OCC(F)(F)F)cn12 [Example 89, 6-[[5-fluoro-3-(2,2,2-trifluoroethoxy)-2-pyridyl]oxy]-3-methyl-N-[3-methyl-1-(2,2,2-trifluoroacetyl)azetidin-3-yl]imidazo[1,2-a]pyridine-2-carboxamide] | 20
Cc1c(C(=O)NC2(C(C)C)CCS(=O)(=O)CC2)nc2ccc(Oc3ncc(F)cc3OCC(F)(F)F)cn12 [Example 91, 6-[[5-fluoro-3-(2,2,2-trifluoroethoxy)-2-pyridyl]oxy]-N-(4-isopropyl-1,1-dioxo-thian-4-yl)-3-methyl-imidazo[1,2-a]pyridine-2-carboxamide] | 22

Continued, values first:

IC50 [nM] | Structure (SMILES)
1.2 | Cc1c(C(=O)NC2(CC#N)CCS(=O)(=O)CC2)nc2ccc(Oc3ncc(Cl)cc3OCC(F)F)cn12 [Example 76, 6-[[5-chloro-3-(2,2-difluoroethoxy)-2-pyridyl]oxy]-N-[4-(cyanomethyl)-1,1-dioxo-thian-4-yl]-3-methyl-imidazo[1,2-a]pyridine-2-carboxamide]
33 | CCC1(NC(=O)c2nc3ccc(Oc4ncc(F)cc4OCC(F)(F)F)cn3c2C)CCS(=O)(=O)CC1 [Example 77, N-(4-ethyl-1,1-dioxo-thian-4-yl)-6-[[5-fluoro-3-(2,2,2-trifluoroethoxy)-2-pyridyl]oxy]-3-methyl-imidazo[1,2-a]pyridine-2-carboxamide]
9.1 | Cc1c(C(=O)NC2(C)CCS(=O)(=O)CC2)nc2ccc(Oc3nccnc3OCC(F)(F)F)cn12 [Example 82, 3-methyl-N-(4-methyl-1,1-dioxo-thian-4-yl)-6-[3-(2,2,2-trifluoroethoxy)pyrazin-2-yl]oxy-imidazo[1,2-a]pyridine-2-carboxamide]
12 | CO[C@]1(C(F)(F)F)C[C@H](NC(=O)c2nc3ccc(Oc4ncc(F)cc4OCC(F)F)cn3c2C)C1 [Example 83, 6-[[3-(2,2-difluoroethoxy)-5-fluoro-2-pyridyl]oxy]-N-[3-methoxy-3-(trifluoromethyl)cyclobutyl]-3-methyl-imidazo[1,2-a]pyridine-2-carboxamide]
6.8 | Cc1c(C(=O)NC2(C)CCC(F)(F)CC2)nc2ccc(Oc3ncccc3OCC(F)F)cn12 [Example 86, 6-[[3-(2,2-difluoroethoxy)-2-pyridyl]oxy]-N-(4,4-difluoro-1-methyl-cyclohexyl)-3-methyl-imidazo[1,2-a]pyridine-2-carboxamide]
8.3 | Cc1c(C(=O)NC2(C)CCS(=O)(=O)CC2)nc2ccc(Oc3ncc(F)cc3OCC(F)(F)F)cn12 [Example 88, 6-[[5-fluoro-3-(2,2,2-trifluoroethoxy)-2-pyridyl]oxy]-3-methyl-N-(4-methyl-1,1-dioxo-thian-4-yl)imidazo[1,2-a]pyridine-2-carboxamide]
5 | Cc1c(C(=O)NC2(C)CS(=O)(=O)C2)nc2ccc(Oc3ncccc3OCC(F)F)cn12 [Example 90, 6-[[3-(2,2-difluoroethoxy)-2-pyridyl]oxy]-3-methyl-N-(3-methyl-1,1-dioxo-thietan-3-yl)imidazo[1,2-a]pyridine-2-carboxamide]
17 | Cc1c(C(=O)NC2(C)CCS(=O)(=O)CC2)nc2ccc(Oc3ncc(C(F)(F)F)cc3OCC(F)(F)F)cn12 [Example 92, 3-methyl-N-(4-methyl-1,1-dioxo-thian-4-yl)-6-[[3-(2,2,2-trifluoroethoxy)-5-(trifluoromethyl)-2-pyridyl]oxy]imidazo[1,2-a]pyridine-2-carboxamide]
